# Test results as given in patent publication US10137072B2, “Methods and compositions for providing broad spectrum photo protection using antioxidants” (L'OREAL, priority 2016, dated 2018).
# Read-outs that look alike come from different tables or passages of the source.
# Tested on: human skin keratinocytes and/or fibroblasts
# Assay: in vitro ROS probe assay: protection of live skin cells against ROS induced by visible light and infrared radiation
# Assay type: cell-based
# Design: key to Visible light protection % / IR protection %: Strong: “strong” refers to a percent protection greater than 70%; “Medium” refers to a percent protection less than or equal to 70% but greater than or equal to 40%; “Low” refers to a percent protection less than 40%; Negative: The term “negative” is used when there is no protection
# Conditions: cells pre-treated 24 hours at 10 μg/ml (0.001%), antioxidant removed before exposure; for inhibition at 10 µg/mL: Homo sapiens, light or radiation study
# Description: A sensitive in vitro ROS (Reactive Oxygen Species) probe was used to evaluate the protective effects of antioxidants on live skin cells against visible light and infrared radiation (IR). Based on a blind screening of 26 compounds, 12 compounds were discovered that efficiently (>40%) decrease the ROS induced by visible light and/or IR radiation on human skin keratinocytes and/or fibroblasts. These compounds (or mixtures of these compounds) provide biological protection for skin cells against visible light and infrared radiation.
# Human cells were pre-treated with and without antioxidants for 24 hours at a very low concentration (10 μg/ml (0.001%)). After incubation for 24 hours, the cells were rinsed and the medium changed in order to remove all the antioxidants before light exposure. The cells were exposed to visible light (100 J/cm^2) and infrared radiation (200 J/cm^2) using Xenon Light Source 300W Monochromatic Light with Filters Max-303 (Asashi Spectra company). After exposure to the visible light and the IR radiation, a new ROS probe was incubated with the cells for one hour to track the in vitro ROS produced. A comfocal microscope and associated software was used to image the fluorescent signals from individual cells and quantify the fluorescence intensity. By comparing with control samples without a pretreatment of antioxidants, it was possible to quantify the protection effect.
# In the table above, “strong” refers to a percent protection greater than 70%, “Medium” refers to a percent protection less than or equal to 70% but greater than or equal to 40%. “Low” refers to a percent protection less than 40%. The term “negative” is used when there is no protection. The protection percentage was defined according to the equation below (wherein the term “AOX” refers to “antioxidant”).
# Since the in vitro tests were done on live human skin cells, kerotinocytes and fibroblasts, and the antioxidants in the cell culture media were removed before light exposure, the results directly predict the biological protection effects of the antioxidants on skin against visible light and infrared radiation.
# [1] = ROS induced by infrared radiation (200 J/cm^2), read-out: IR protection %
# [2] = ROS induced by visible light (100 J/cm^2), read-out: Visible light protection %
# [3] = ROS induced by infrared radiation (200 J/cm^2)
# [4] = ROS induced by visible light (100 J/cm^2)
compound,measurement,setting,value
"C[C@@H]1O[C@@H](O[C@H]2C(=O)c3c(O)cc(O)cc3O[C@@H]2c2ccc(O)c(O)c2)[C@H](O)[C@H](O)[C@H]1O [Astilbin, astilbin]",inhibition at 10 µg/mL,[1],40 to 70%
same,inhibition at 10 µg/mL,[2],40 to 70%
"O=C(O)[C@H]1O[C@@H](Oc2cc3oc(-c4ccccc4)cc(=O)c3c(O)c2O)[C@H](O)[C@@H](O)[C@@H]1O [Baicalin, baicalin]",inhibition at 10 µg/mL,[1],40 to 70%
same,inhibition at 10 µg/mL,[2],> 70%
NCCC(=O)N[C@@H](Cc1c[nH]cn1)C(=O)O [Carnosin],IR protection %,[3],Low (“Low” refers to a percent protection less than 40%)
same,Visible light protection %,[4],Low (“Low” refers to a percent protection less than 40%)
"COc1cc(/C=C/C(=O)O)ccc1O [Ferulic Acid, ferulic acid]",inhibition at 10 µg/mL,[1],40 to 70%
same,inhibition at 10 µg/mL,[2],40 to 70%
"COc1ccc([C@@H]2CC(=O)c3c(O)cc(O)cc3O2)cc1O [Hesperetin, hesperetin]",inhibition at 10 µg/mL,[1],< 40%
same,inhibition at 10 µg/mL,[2],> 70%
COc1ccc(CCC(=O)c2c(O)cc(O[C@@H]3O[C@H](CO)[C@@H](O)[C@H](O)[C@H]3O[C@@H]3O[C@@H](C)[C@H](O)[C@@H](O)[C@H]3O)cc2O)cc1O [Neohesperidin DHC],IR protection %,[3],Strong (“strong” refers to a percent protection greater than 70%)
same,Visible light protection %,[4],Negative
O=C(CCc1ccc(O)cc1)c1c(O)cc(O)cc1O [Phloretin],Visible light protection %,[4],Negative
"OC[C@H]1O[C@@H](Oc2cc(O)cc(/C=C/c3ccc(O)cc3)c2)[C@H](O)[C@@H](O)[C@@H]1O [Polydatin, polydatin]",inhibition at 10 µg/mL,[1],> 70%
same,inhibition at 10 µg/mL,[2],> 70%
O=C1N[C@H](C(=O)O)CS1 [Pro-cysteine],inhibition at 10 µg/mL,[1],< 40%
same,Visible light protection %,[4],Negative
Oc1ccc(C=Cc2cc(O)cc(O)c2)cc1 [Resveratrol],inhibition at 10 µg/mL,[2],< 40%
same,IR protection %,[3],Negative
CC1=NCC[C@@H](C(=O)O)N1 [Ronacare Ectoin],IR protection %,[3],Low (“Low” refers to a percent protection less than 40%)
same,Visible light protection %,[4],Negative
"COC1=C(OC)C(=O)C(C/C=C(\C)CC/C=C(\C)CC/C=C(\C)CC/C=C(\C)CC/C=C(\C)CC/C=C(\C)CC/C=C(\C)CC/C=C(\C)CC/C=C(\C)CCC=C(C)C)=C(C)C1=O [Ubiquinone(coQ10), Ubiquinone]",inhibition at 10 µg/mL,[1],> 70%
O=C1O[C@H]([C@@H](O)CO)C(O)=C1O [Vit C],IR protection %,[3],Low (“Low” refers to a percent protection less than 40%)
same,Visible light protection %,[4],Low (“Low” refers to a percent protection less than 40%)
C=CC(C)(C)c1cc(/C=C/C(=O)c2ccc(O)cc2)c(OC)cc1O [licochalcone A],Visible light protection %,[4],Negative
catechin,IR protection %,[3],Medium (“Medium” refers to a percent protection less than or equal to 70% but greater than or equal to 40%)
same,Visible light protection %,[4],Strong (“strong” refers to a percent protection greater than 70%)
